# Laboratory results from patent US20100298141A1, “SUBSTITUTED PYRIDINE N-OXIDE HERBICIDES” (E. I. DU PONT DE NEMOURS AND COMPANY, priority 2007, published 2010).
# Tests used:
# yellow nutsedge = assay: Test G preemergence test; assay type: in vivo, Cyperus esculentus; conditions: scale 0 to 100
# winter barley = assay: Test D preemergence test; assay type: in vivo, Hordeum vulgare
# Description: (§1) Seeds of plant species selected from annual bluegrass (Poa annua), blackgrass (Alopecurus myosuroides), downy bromegrass (Bromus tectorum), field violet (Viola arvensis), green foxtail (Setaria viridis), Italian ryegrass (Lolium multiflorum), littleseed canarygrass (Phalaris minor), spring wheat (Triticum aestivum), wild oat (Avena fatua), […]), winter barley (Hordeum vulgare), and winter wheat (Triticum aestivum) were planted and treated preemergence with test chemicals formulated in a non-phytotoxic solvent mixture which included a surfactant. […] A dash (-) response means no test result.
# downy bromegrass = assay: Test D preemergence test; assay type: in vivo, Bromus tectorum; conditions: scale 0 to 100
# Description: as §1
# windgrass = assay: Test D preemergence test; assay type: in vivo, Apera spica-venti; conditions: scale 0 to 100
# Description: as §1
# itchgrass = assay: Test G preemergence test; assay type: in vivo, Rottboellia cochinchinensis; conditions: scale 0 to 100
# large crabgrass = assay: Test G preemergence test; assay type: in vivo, Digitaria sanguinalis; conditions: scale 0 to 100
# tall waterhemp = assay: Test G preemergence test; assay type: in vivo, Amaranthus tuberculatos; conditions: scale 0 to 100
# winter wheat = assay: Test D preemergence test; assay type: in vivo, Triticum aestivum; conditions: scale 0 to 100
# Description: as §1
# spring wheat = assay: Test D preemergence test; assay type: in vivo, Triticum aestivum; conditions: scale 0 to 100
# Description: as §1
# blackgrass = assay: Test D preemergence test; assay type: in vivo, Alopecurus myosuroides; conditions: scale 0 to 100
# Description: as §1
# littleseed canarygrass = assay: Test D preemergence test; assay type: in vivo, Phalaris minor; conditions: scale 0 to 100
# Description: as §1
# lambsquarters = assay: Test G preemergence test; assay type: in vivo, Chenopodium album; conditions: scale 0 to 100
# woolly cupgrass = assay: Test G preemergence test; assay type: in vivo, Eriochloa villosa; conditions: scale 0 to 100
# field violet = assay: Test D preemergence test; assay type: in vivo, Viola arvensis; conditions: scale 0 to 100
# Description: as §1
# sorghum = assay: Test G preemergence test; assay type: in vivo, Sorghum vulgare; conditions: scale 0 to 100
# fall panicum = assay: Test G preemergence test; assay type: in vivo, Panicum dichotomiflorum; conditions: scale 0 to 100
# goosegrass = assay: Test G preemergence test; assay type: in vivo, Eleusine indica; conditions: scale 0 to 100
# broadleaf signalgrass = assay: Test G preemergence test; assay type: in vivo, Brachiaria platyphylla; conditions: scale 0 to 100
# green foxtail = assay: Test D preemergence test; assay type: in vivo, Setaria viridis; conditions: scale 0 to 100
# Description: as §1
# eastern black nightshade = assay: Test G preemergence test; assay type: in vivo, Solanum ptycanthum; conditions: scale 0 to 100
# yellow foxtail = assay: Test G preemergence test; assay type: in vivo, Pennisetum glaucum; conditions: scale 0 to 100
# millet foxtail = assay: Test G preemergence test; assay type: in vivo, Setaria italica; conditions: scale 0 to 100
structure (smiles),measurement,setting,value
Cn1nc(C(F)(F)F)c(C(Cl)S(=O)(=O)c2cccc[n+]2[O-])c1Cl (stereo not shown) [Compound 12],"Plant response rating, Nutsedge, Yellow",yellow nutsedge; 31 g ai/ha,0
same,"Plant response rating, Nutsedge, Yellow",yellow nutsedge; 62 g ai/ha,0
same,"Plant response rating, Nutsedge, Yellow",yellow nutsedge; 125 g ai/ha,0
same,"Plant response rating, Nutsedge, Yellow",yellow nutsedge; 250 g ai/ha,20
same,"Plant response rating, Barley","winter barley; Preemergence, 62 g ai/ha, scale 0 to 100",0
same,"Plant response rating, Barley","winter barley; Preemergence, 125 g ai/ha, scale 0 to 100",0
same,"Plant response rating, Barley","winter barley; Preemergence, 31 g ai/ha, scale 0 to 100",0
same,"Plant response rating, Barley","winter barley; preemergence, 250 g ai/ha, scale 0 (no effect) to 100 (complete control)",0
same,"Plant response rating, Bromegrass, Downy",downy bromegrass; 31 g ai/ha,0
same,"Plant response rating, Bromegrass, Downy",downy bromegrass; 62 g ai/ha,0
same,"Plant response rating, Bromegrass, Downy",downy bromegrass; 125 g ai/ha,60
same,"Plant response rating, Bromegrass, Downy",downy bromegrass; 250 g ai/ha,60
same,"Plant response rating, Windgrass",windgrass; 31 g ai/ha,100
same,"Plant response rating, Windgrass",windgrass; 62 g ai/ha,100
same,"Plant response rating, Windgrass",windgrass; 125 g ai/ha,100
same,"Plant response rating, Windgrass",windgrass; 250 g ai/ha,100
same,"Plant response rating, Itchgrass",itchgrass; 31 g ai/ha,0
same,"Plant response rating, Itchgrass",itchgrass; 62 g ai/ha,0
same,"Plant response rating, Itchgrass",itchgrass; 125 g ai/ha,0
same,"Plant response rating, Itchgrass",itchgrass; 250 g ai/ha,0
same,"Plant response rating, Crabgrass, Large",large crabgrass; 31 g ai/ha,15
same,"Plant response rating, Crabgrass, Large",large crabgrass; 62 g ai/ha,60
same,"Plant response rating, Crabgrass, Large",large crabgrass; 125 g ai/ha,95
same,"Plant response rating, Crabgrass, Large",large crabgrass; 250 g ai/ha,100
same,"Plant response rating, Waterhemp",tall waterhemp; 31 g ai/ha,0
same,"Plant response rating, Waterhemp",tall waterhemp; 62 g ai/ha,40
same,"Plant response rating, Waterhemp",tall waterhemp; 125 g ai/ha,95
same,"Plant response rating, Waterhemp",tall waterhemp; 250 g ai/ha,100
same,"Plant response rating, Wheat, Winter",winter wheat; 31 g ai/ha,0
same,"Plant response rating, Wheat, Winter",winter wheat; 62 g ai/ha,0
same,"Plant response rating, Wheat, Winter",winter wheat; 125 g ai/ha,0
same,"Plant response rating, Wheat, Winter",winter wheat; 250 g ai/ha,0
same,"Plant response rating, Wheat, Spring",spring wheat; 31 g ai/ha,0
same,"Plant response rating, Wheat, Spring",spring wheat; 62 g ai/ha,0
same,"Plant response rating, Wheat, Spring",spring wheat; 125 g ai/ha,0
same,"Plant response rating, Wheat, Spring",spring wheat; 250 g ai/ha,0
same,"Plant response rating, Blackgrass",blackgrass; 31 g ai/ha,0
same,"Plant response rating, Blackgrass",blackgrass; 62 g ai/ha,0
same,"Plant response rating, Blackgrass",blackgrass; 125 g ai/ha,100
same,"Plant response rating, Blackgrass",blackgrass; 250 g ai/ha,100
same,"Plant response rating, Canarygrass",littleseed canarygrass; 31 g ai/ha,0
same,"Plant response rating, Canarygrass",littleseed canarygrass; 62 g ai/ha,0
same,"Plant response rating, Canarygrass",littleseed canarygrass; 125 g ai/ha,75
same,"Plant response rating, Canarygrass",littleseed canarygrass; 250 g ai/ha,100
same,"Plant response rating, Lambsquarters",lambsquarters; 31 g ai/ha,0
same,"Plant response rating, Lambsquarters",lambsquarters; 62 g ai/ha,0
same,"Plant response rating, Lambsquarters",lambsquarters; 125 g ai/ha,0
same,"Plant response rating, Lambsquarters",lambsquarters; 250 g ai/ha,15
same,"Plant response rating, Cupgrass, Woolly",woolly cupgrass; 31 g ai/ha,0
same,"Plant response rating, Cupgrass, Woolly",woolly cupgrass; 62 g ai/ha,0
same,"Plant response rating, Cupgrass, Woolly",woolly cupgrass; 125 g ai/ha,65
same,"Plant response rating, Cupgrass, Woolly",woolly cupgrass; 250 g ai/ha,70
same,"Plant response rating, Field Violet",field violet; 31 g ai/ha,0
same,"Plant response rating, Field Violet",field violet; 62 g ai/ha,0
same,"Plant response rating, Field Violet",field violet; 125 g ai/ha,0
same,"Plant response rating, Field Violet",field violet; 250 g ai/ha,40
same,"Plant response rating, Sorghum",sorghum; 31 g ai/ha,0
same,"Plant response rating, Sorghum",sorghum; 62 g ai/ha,0
same,"Plant response rating, Sorghum",sorghum; 125 g ai/ha,60
same,"Plant response rating, Sorghum",sorghum; 250 g ai/ha,100
same,"Plant response rating, Fall Panicum",fall panicum; 31 g ai/ha,90
same,"Plant response rating, Fall Panicum",fall panicum; 62 g ai/ha,100
same,"Plant response rating, Fall Panicum",fall panicum; 125 g ai/ha,100
same,"Plant response rating, Fall Panicum",fall panicum; 250 g ai/ha,100
same,"Plant response rating, Goosegrass",goosegrass; 31 g ai/ha,100
same,"Plant response rating, Goosegrass",goosegrass; 62 g ai/ha,100
same,"Plant response rating, Goosegrass",goosegrass; 125 g ai/ha,100
same,"Plant response rating, Goosegrass",goosegrass; 250 g ai/ha,100
same,"Plant response rating, Signalgrass",broadleaf signalgrass; 31 g ai/ha,0
same,"Plant response rating, Signalgrass",broadleaf signalgrass; 62 g ai/ha,0
same,"Plant response rating, Signalgrass",broadleaf signalgrass; 125 g ai/ha,75
same,"Plant response rating, Signalgrass",broadleaf signalgrass; 250 g ai/ha,75
same,"Plant response rating, Foxtail, Green",green foxtail; 31 g ai/ha,55
same,"Plant response rating, Foxtail, Green",green foxtail; 62 g ai/ha,60
same,"Plant response rating, Foxtail, Green",green foxtail; 125 g ai/ha,65
same,"Plant response rating, Foxtail, Green",green foxtail; 250 g ai/ha,100
same,"Plant response rating, Nightshade",eastern black nightshade; 31 g ai/ha,0
same,"Plant response rating, Nightshade",eastern black nightshade; 62 g ai/ha,0
same,"Plant response rating, Nightshade",eastern black nightshade; 125 g ai/ha,0
same,"Plant response rating, Nightshade",eastern black nightshade; 250 g ai/ha,70
same,"Plant response rating, Foxtail, Yellow",yellow foxtail; 31 g ai/ha,95
same,"Plant response rating, Foxtail, Yellow",yellow foxtail; 62 g ai/ha,100
same,"Plant response rating, Foxtail, Yellow",yellow foxtail; 125 g ai/ha,100
same,"Plant response rating, Foxtail, Yellow",yellow foxtail; 250 g ai/ha,100
same,"Plant response rating, Foxtail, Millet",millet foxtail; 31 g ai/ha,45
same,"Plant response rating, Foxtail, Millet",millet foxtail; 62 g ai/ha,75
same,"Plant response rating, Foxtail, Millet",millet foxtail; 125 g ai/ha,100
same,"Plant response rating, Foxtail, Millet",millet foxtail; 250 g ai/ha,100
